# Source: patent US8618068B2, “Methods and low dose regimens for treating red blood cell disorders” (priority 2009, dated 2013)
# Marks after values point to notes of the source that are not given here.
# Tests used:
# [1] = test system: fetal globin; details: cited from earlier work
# [2] = test system: γ-globin mRNA; assay: γ-globin mRNA in anemic baboons given HU and DMB; type: in vivo; details: HU 3 days/week
# [3] = test system: micronucleated erythrocytes (PCEs); details: cited from earlier work
# [4] = test system: F-cells; assay: F-cells in Bfu-e erythroid progenitor cultures; type: cell-based
# [5] = test system: β- and γ-globin gene promoters; assay: Double-luciferase reporter assay of γ-globin expression in GM979 cells; type: cell-based, murine
# Description: DMB was compared to arginine butyrate (AB) for its ability to induce y-globin expression in a double-luciferase reporter assay in murine erythroleukemia (GM979) cells transfected with the pLCR linked to the β- and γ-globin gene promoters linked to a different luciferase gene.
molecule,measurement,setting,value
"NC(=O)NO [HU, hydroxyurea]",patients in whom clinical benefit is observed,[1]; SCD patients,40-50%
same,treatment required for optimal effects on HbF,[1]; at a level close to the maximum tolerated dose,6-9 months
same,γ-globin mRNA increase above baseline,[2],80-120%
O=P1(N(CCCl)CCCl)NCCCO1 (stereo not shown) [cyclophosphamide],"historical positive control values, mean±SD",[3],"19.2±15.5 MN PCEs/1,000 PCEs"
"Nc1ncn([C@H]2C[C@H](O)[C@@H](CO)O2)c(=O)n1 [decitabine, 5-aza-2′-deoxycytidine, reference compound]",F-cells increase above F-cell levels in control cultures,[4],66-104%
Arginine butyrate [reference compound],Mean Fold Increase,"[5]; 0.5 mM, compared to untreated controls, p ≦ 0.01",1.8*
same,"γ/(γ + β) globin Expression, Range",[5]; Active Concentration 0.5 mM,0.029-0.047
